Data on 20 compounds can be found in ChEMBL document CHEMBL5291721, “A preclinical secondary pharmacology resource illuminates target-adverse drug reaction associations of marketed drugs” (Nat Commun, 2023).

Some results are limits rather than exact numbers.

One may read the AC50 as the concentration giving half of the maximal activity seen.

For test [1], the target named is T1, Prostaglandin G/H synthase 1 (Rattus norvegicus, UniProt Q63921).
T1 sequence (Q63921 whole entry): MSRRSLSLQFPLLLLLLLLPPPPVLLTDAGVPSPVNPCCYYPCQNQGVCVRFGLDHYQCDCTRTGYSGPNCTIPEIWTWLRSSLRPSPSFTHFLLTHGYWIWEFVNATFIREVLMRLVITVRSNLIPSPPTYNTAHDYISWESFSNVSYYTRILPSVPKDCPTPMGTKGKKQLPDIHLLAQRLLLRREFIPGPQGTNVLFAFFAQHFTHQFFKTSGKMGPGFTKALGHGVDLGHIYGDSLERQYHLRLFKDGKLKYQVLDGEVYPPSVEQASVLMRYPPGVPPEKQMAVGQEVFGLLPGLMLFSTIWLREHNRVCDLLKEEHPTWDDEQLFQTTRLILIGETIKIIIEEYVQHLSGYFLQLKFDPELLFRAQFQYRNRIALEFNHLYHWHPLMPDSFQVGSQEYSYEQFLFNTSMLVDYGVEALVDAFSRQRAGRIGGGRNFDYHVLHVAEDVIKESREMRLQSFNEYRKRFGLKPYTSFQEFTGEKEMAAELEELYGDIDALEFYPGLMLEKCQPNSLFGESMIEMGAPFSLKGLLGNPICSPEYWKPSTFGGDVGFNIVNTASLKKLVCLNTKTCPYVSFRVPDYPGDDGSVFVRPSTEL
The class given is functional.

Test [2] has as its target Motilin receptor (Homo sapiens, UniProt O43193).
The target in test [3] is Cannabinoid receptor 1 (Homo sapiens, UniProt P21554).
The target in test [4] is T2, Androgen receptor (Rattus norvegicus, UniProt P15207).
T2 sequence (P15207 whole entry): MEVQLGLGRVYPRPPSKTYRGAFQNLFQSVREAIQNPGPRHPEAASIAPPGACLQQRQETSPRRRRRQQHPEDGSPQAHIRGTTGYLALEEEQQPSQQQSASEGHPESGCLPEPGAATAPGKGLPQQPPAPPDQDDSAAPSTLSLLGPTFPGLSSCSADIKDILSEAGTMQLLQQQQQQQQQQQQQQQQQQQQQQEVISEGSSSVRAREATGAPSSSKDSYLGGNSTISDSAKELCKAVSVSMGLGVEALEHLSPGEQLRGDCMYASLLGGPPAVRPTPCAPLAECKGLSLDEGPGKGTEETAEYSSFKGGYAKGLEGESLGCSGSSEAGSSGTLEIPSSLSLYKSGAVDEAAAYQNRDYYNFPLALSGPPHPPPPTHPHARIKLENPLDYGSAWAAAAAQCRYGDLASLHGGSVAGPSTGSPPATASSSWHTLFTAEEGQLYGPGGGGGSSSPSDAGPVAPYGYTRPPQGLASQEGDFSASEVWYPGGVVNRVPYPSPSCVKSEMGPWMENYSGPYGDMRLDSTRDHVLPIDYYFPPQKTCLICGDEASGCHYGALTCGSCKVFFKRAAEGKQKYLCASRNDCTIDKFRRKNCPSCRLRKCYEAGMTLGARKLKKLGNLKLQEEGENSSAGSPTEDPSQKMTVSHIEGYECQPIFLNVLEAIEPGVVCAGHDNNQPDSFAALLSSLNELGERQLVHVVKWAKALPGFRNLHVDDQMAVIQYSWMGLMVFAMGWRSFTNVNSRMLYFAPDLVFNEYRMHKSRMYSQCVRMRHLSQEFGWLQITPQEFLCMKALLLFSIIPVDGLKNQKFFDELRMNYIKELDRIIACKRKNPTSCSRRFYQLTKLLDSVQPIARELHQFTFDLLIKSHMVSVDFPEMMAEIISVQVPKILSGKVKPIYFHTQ

Test [5] concerns the target 5-hydroxytryptamine receptor 2A (Homo sapiens, UniProt P28223). The class given is functional, cell-based.
The target in test [6] is Mu-type opioid receptor (Homo sapiens, UniProt P35372). The test is described as follows: biochemical. The class given is functional.
In test [7] the target is Beta-2 adrenergic receptor (Homo sapiens, UniProt P07550). The class given is functional, cell-based.
For test [8], the target named is 5-hydroxytryptamine receptor 2B (Homo sapiens, UniProt P41595).
The target of test [9] is Neurotensin receptor type 1 (Homo sapiens, UniProt P30989).
Test [10] concerns the target Beta-3 adrenergic receptor (Homo sapiens, UniProt P13945).
In test [11] the target is Voltage-dependent N-type calcium channel subunit alpha-1B (Rattus norvegicus, UniProt Q02294). The class given is functional.
Also: assay procedure not described here.

Chain of 5-hydroxytryptamine receptor 2B (P41595 whole entry): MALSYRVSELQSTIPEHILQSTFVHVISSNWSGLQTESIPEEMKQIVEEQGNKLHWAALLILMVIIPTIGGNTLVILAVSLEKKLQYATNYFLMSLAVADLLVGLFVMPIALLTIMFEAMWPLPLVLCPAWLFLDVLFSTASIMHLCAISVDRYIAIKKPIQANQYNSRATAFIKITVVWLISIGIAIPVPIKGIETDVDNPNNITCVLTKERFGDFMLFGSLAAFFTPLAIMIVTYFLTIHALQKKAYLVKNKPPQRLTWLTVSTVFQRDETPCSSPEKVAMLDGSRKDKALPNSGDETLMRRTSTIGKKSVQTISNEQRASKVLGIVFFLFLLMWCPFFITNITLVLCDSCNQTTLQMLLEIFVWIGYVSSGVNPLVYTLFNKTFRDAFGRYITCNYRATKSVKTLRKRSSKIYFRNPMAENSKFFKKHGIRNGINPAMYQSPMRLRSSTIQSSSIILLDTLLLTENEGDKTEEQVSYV
Chain of Beta-2 adrenergic receptor (P07550 whole entry): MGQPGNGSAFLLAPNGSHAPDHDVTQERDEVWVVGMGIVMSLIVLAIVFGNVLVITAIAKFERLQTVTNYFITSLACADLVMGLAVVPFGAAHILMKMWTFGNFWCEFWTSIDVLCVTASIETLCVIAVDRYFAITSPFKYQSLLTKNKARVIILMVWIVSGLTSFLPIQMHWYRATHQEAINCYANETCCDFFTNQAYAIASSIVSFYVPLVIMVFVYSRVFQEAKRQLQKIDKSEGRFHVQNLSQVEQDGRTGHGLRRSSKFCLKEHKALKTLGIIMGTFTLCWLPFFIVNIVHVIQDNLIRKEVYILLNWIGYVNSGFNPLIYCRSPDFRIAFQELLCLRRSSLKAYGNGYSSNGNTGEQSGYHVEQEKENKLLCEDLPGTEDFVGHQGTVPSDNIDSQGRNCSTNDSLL
Chain of Motilin receptor (O43193 whole entry): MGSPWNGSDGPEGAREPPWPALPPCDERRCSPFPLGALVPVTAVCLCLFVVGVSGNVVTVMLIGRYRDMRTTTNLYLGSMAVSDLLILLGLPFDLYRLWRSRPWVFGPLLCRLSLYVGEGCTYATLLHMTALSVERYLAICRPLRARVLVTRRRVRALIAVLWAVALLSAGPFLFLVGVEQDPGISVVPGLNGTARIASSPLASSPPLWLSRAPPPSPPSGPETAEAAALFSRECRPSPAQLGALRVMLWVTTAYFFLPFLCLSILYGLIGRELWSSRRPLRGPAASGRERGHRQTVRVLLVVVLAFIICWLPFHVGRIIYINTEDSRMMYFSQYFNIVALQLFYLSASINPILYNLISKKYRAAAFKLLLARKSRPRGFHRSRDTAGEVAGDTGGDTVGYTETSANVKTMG
Chain of Cannabinoid receptor 1 (P21554 whole entry): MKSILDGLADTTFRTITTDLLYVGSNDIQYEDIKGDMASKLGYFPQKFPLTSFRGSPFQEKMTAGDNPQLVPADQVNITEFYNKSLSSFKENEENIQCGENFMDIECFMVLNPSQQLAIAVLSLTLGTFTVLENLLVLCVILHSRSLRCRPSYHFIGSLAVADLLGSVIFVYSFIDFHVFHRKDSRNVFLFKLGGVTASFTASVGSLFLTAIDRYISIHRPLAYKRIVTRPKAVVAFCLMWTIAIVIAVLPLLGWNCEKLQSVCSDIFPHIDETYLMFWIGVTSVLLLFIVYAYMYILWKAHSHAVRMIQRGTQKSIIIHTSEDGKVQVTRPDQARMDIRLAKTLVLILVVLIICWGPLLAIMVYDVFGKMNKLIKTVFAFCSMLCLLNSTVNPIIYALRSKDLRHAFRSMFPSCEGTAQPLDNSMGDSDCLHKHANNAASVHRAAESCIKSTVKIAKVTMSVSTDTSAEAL
Chain of Mu-type opioid receptor (P35372 whole entry): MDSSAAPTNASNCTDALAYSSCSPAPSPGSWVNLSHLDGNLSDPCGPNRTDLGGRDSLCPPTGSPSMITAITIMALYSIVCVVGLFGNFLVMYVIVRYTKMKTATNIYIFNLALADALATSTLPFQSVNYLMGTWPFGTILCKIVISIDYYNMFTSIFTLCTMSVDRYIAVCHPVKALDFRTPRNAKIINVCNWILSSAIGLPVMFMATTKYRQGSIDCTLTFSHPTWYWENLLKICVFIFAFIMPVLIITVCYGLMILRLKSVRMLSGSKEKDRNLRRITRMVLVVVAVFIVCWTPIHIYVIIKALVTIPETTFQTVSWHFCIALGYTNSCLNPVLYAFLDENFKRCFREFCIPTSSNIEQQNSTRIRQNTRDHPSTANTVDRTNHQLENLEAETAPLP
Chain of 5-hydroxytryptamine receptor 2A (P28223 whole entry): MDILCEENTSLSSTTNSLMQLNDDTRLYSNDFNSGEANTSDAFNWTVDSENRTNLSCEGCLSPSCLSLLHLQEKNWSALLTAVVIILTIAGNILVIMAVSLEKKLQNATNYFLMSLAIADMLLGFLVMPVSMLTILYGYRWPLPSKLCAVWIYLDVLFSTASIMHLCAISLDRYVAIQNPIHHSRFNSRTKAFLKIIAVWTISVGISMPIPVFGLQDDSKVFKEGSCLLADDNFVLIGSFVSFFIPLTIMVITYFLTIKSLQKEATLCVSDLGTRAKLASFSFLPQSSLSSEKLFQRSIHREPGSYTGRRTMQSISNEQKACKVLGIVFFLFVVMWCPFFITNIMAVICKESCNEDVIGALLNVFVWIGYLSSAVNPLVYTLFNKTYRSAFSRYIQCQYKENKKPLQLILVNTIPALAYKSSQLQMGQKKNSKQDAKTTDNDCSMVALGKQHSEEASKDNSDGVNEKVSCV
Chain of Voltage-dependent N-type calcium channel subunit alpha-1B (Q02294 whole entry): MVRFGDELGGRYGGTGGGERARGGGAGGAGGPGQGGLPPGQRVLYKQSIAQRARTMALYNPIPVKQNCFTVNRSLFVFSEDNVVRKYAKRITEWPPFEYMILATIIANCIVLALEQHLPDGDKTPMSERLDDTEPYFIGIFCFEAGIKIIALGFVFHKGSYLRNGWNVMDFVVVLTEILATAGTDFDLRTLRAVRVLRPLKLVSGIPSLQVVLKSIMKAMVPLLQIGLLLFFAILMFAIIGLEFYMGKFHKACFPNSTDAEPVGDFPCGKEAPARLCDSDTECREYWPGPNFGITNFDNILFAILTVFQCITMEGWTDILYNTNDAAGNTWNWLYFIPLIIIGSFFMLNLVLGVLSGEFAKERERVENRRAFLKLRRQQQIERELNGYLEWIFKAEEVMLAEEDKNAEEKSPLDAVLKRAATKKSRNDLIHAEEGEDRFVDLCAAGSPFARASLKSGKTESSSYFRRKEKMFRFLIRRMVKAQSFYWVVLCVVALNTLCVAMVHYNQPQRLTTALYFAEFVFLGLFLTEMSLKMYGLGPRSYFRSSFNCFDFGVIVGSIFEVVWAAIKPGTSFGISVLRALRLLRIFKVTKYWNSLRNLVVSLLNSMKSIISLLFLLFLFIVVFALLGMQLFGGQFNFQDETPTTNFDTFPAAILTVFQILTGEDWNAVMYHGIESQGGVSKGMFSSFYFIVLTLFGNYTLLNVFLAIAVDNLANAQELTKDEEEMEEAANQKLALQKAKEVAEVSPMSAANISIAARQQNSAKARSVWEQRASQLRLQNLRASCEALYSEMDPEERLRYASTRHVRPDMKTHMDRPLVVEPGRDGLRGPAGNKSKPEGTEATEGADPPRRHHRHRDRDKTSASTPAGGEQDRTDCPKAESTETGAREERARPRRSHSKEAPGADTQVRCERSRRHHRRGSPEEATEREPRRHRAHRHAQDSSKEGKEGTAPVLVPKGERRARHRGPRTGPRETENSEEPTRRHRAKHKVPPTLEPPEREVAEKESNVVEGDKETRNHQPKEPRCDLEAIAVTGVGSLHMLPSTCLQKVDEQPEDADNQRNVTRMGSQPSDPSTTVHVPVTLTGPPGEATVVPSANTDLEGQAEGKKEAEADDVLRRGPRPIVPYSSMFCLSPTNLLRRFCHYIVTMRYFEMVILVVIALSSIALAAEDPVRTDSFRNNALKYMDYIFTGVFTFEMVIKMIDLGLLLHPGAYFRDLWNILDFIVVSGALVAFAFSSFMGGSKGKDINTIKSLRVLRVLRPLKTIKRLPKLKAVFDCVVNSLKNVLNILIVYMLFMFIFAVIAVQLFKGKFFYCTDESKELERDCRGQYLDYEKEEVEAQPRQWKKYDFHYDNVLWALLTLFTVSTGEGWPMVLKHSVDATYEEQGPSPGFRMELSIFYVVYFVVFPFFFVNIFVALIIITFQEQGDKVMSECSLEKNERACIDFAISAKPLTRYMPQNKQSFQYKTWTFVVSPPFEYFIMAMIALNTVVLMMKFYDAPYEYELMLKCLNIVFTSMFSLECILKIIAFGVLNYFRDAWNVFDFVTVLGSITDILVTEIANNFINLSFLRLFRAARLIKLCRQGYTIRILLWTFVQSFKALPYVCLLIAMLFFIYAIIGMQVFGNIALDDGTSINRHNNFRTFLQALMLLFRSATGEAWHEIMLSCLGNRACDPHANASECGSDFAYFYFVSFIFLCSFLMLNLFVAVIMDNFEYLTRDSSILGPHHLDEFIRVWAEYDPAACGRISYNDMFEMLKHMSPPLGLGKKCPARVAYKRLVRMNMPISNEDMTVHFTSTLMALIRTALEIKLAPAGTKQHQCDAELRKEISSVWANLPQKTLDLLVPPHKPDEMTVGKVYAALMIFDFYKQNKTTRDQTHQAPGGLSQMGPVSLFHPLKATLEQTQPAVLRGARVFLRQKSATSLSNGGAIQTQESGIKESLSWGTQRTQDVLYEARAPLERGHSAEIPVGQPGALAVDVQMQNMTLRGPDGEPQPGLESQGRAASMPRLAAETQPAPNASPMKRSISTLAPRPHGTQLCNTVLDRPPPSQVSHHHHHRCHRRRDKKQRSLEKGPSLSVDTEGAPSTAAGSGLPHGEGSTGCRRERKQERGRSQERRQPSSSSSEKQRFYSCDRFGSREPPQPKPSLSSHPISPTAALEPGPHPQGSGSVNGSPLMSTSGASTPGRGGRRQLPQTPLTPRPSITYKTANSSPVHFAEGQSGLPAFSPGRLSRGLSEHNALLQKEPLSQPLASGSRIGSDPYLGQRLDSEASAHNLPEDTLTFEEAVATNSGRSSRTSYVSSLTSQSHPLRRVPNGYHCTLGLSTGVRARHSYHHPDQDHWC

In the case of `CC(C)CN(C[C@@H](O)[C@H](Cc1ccccc1)NC(=O)O[C@H]1CCOC1)S(=O)(=O)c1ccc(N)cc1`, the AC50 was over 10 µM in [1], 7.3 µM in test [2], 11.4 µM in [3] and over 10 µM in test [4].
As to `OCC(O)COc1ccc(Cl)cc1` (stereo not drawn), the AC50 in [1], in test [2], in test [3], in [4] and in test [5] was over 10 µM in each case.
On to `CCN(CC)CCCN(c1ccccc1)C1Cc2ccccc2C1` [APRINDINE], for which the AC50 in test [1] is over 30 µM; in [6] it was over 30 µM; in test [2], over 30 µM; in test [7] it was over 30 µM; in test [3], over 10 µM; in test [5], 2.89 µM.
`C[C@@H](Cc1ccccc1)N(C)Cc1ccccc1` [BENZPHETAMINE]: the AC50 is over 10 µM in test [1]; over 10 µM in test [2]; over 10 µM in test [3]; over 10 µM in test [4]; 22 µM in test [5].
For `COc1ccc(C(Cl)=C(c2ccc(OC)cc2)c2ccc(OC)cc2)cc1` [CHLOROTRIANISENE], the concentration at half-maximal activity (AC50) was 0.259 µM in [1]; over 30 µM in test [6]; over 30 µM in test [2]; over 30 µM in test [7]; over 10 µM in test [3]; over 30 µM in test [5].
As to `C=C(c1ccccc1OCc1cccc(Cl)c1)n1ccnc1` [CROCONAZOLE], the AC50 in test [1] was 21.1 µM; in test [2] it was over 10 µM; in [4], over 30 µM.
`OCCN(CCO)c1nc(N2CCCCC2)c2nc(N(CCO)CCO)nc(N3CCCCC3)c2n1` [DIPYRIDAMOLE]: the AC50 in [1], in test [6], in test [8], in test [9], in test [3] and in test [10] was over 30 µM in each case. In addition, the AC50 in test [4] is over 30 µM.
`Cc1cnc(Nc2ccc(OCCN3CCCC3)cc2)nc1Nc1cccc(S(=O)(=O)NC(C)(C)C)c1` [FEDRATINIB]: the half-maximal activity concentration (AC50) is over 30 µM in [1], 14 µM in test [2], over 10 µM in [3] and over 30 µM in test [4].
As for `N=C(N)NC(=O)Cc1c(Cl)cccc1Cl` [GUANFACINE], the half-maximal activity concentration (AC50) in test [1] was over 30 µM; in [6] it was over 30 µM; in test [2], over 10 µM; in test [8], 1.34 µM; in [3], over 10 µM.
Turning to `CC1Cc2ccccc2N1NC(=O)c1ccc(Cl)c(S(N)(=O)=O)c1` (stereo not drawn) [INDAPAMIDE], the AC50 in test [1] is over 30 µM; in test [11], over 10 µM; in test [2], over 10 µM; in test [7] it was over 30 µM; in [3] it was over 10 µM.
For the compound `CN1CCC(=C2c3ccccc3CC(=O)c3sccc32)CC1` [KETOTIFEN], the AC50 is over 10 µM in test [1]; over 30 µM in test [6]; over 10 µM in test [2]; 0.0328 µM in test [8]; over 30 µM in test [7]; over 10 µM in test [3].
On to `Nc1cc(N2CCCCC2)nc(N)[n+]1[O-]` [MINOXIDIL], for which the half-maximal activity concentration (AC50) was over 30 µM in [1]; over 10 µM in [2]; over 30 µM in test [7]; over 10 µM in [3]; over 30 µM in test [4].
Take `COC(=O)c1ccc2c(c1)NC(=O)/C2=C(\Nc1ccc(N(C)C(=O)CN2CCN(C)CC2)cc1)c1ccccc1` [NINTEDANIB]: the AC50 in [1], in test [6], in [2], in test [7] and in test [5] was over 30 µM in each case.
For `CN1CCCN=C1/C=C/c1cccc(O)c1` [OXANTEL], the half-maximal activity concentration (AC50) in [1], in test [6], in test [2], in [7] and in [5] was over 30 µM in each case.
On to `CCOC(=O)O[C@]1(C(=O)COC(=O)CC)CC[C@H]2[C@@H]3CCC4=CC(=O)C=C[C@]4(C)[C@H]3[C@@H](O)C[C@@]21C` [PREDNICARBATE], for which the concentration at half-maximal activity (AC50) is over 10 µM in [1]; over 30 µM in [6]; over 10 µM in test [2]; over 10 µM in test [3]; 0.71 µM in test [4]; over 10 µM in test [5].
`CCC(=O)[C@@]1(C)[C@H](C)C[C@H]2[C@@H]3CCC4=CC(=O)C=C[C@]4(C)[C@H]3[C@@H](O)C[C@@]21C` [RIMEXOLONE]: the AC50 was over 10 µM in test [1]; over 30 µM in test [6]; over 10 µM in [2]; 6.91 µM in test [3]; over 30 µM in test [4]; over 10 µM in test [5].
Consider `CS(=O)(=O)NC(=O)CCC/C=C\C[C@H]1C(=O)C[C@@H](O)[C@@H]1/C=C/[C@@H](O)COc1ccccc1` [SULPROSTONE], for which the AC50 in test [1], in [6], in [2], in test [7] and in [5] was over 30 µM throughout.
Take `CC(C(=O)O)c1ccc(C(=O)c2ccccc2)s1` (stereo not drawn) [TIAPROFENIC ACID]: the AC50 in test [1] was 0.365 µM; in test [2], over 10 µM; in test [7], over 30 µM; in [3] it was over 10 µM; in test [4], over 10 µM; in test [5], over 30 µM.
Take `OCC(CO)N[C@H]1C[C@](O)(CO)[C@@H](O)[C@H](O)[C@H]1O` [VOGLIBOSE]: the AC50 in test [1], in test [6], in test [2], in test [3], in [4] and in test [5] was over 30 µM each time.
For TEPRENONE, the AC50 in test [1] is 16.1 µM; in test [2], over 10 µM; in test [4], over 30 µM.
